# ChEMBL document CHEMBL4385643, “Design of a brain-penetrant CDK4/6 inhibitor for glioblastoma” (Bioorg Med Chem Lett, 2019)
# How the values were obtained:
# [1] = target: Tyrosine-protein kinase JAK3 (Homo sapiens) (UniProt P52333); assay: Inhibition of recombinant human GST-tagged JAK3 catalytic domain (781 to 1124 residues) expressed in baculovirus expression system at 0.1 uM using tyrosine-6 peptide as substrate incubated for 60 mins by Z'-LYTE assay relative to control
# [2] = target: Interleukin-1 receptor-associated kinase 4 (Homo sapiens) (UniProt Q9NWZ3); assay: Inhibition of recombinant full length human His-tagged IRAK4 expressed in baculovirus expression system at 0.1 uM using serine/threonine-7 peptide as substrate incubated for 60 mins by Z'-LYTE assay relative to control
# [3] = target: Mitogen-activated protein kinase 9 (Homo sapiens) (UniProt P45984); assay: Inhibition of recombinant full length human His-tagged JNK2 expressed in baculovirus expression system at 0.1 uM using serine/threonine-4 peptide as substrate incubated for 60 mins by Z'-LYTE assay relative to control
# [4] = target: Serine/threonine-protein kinase pim-1 (Homo sapiens) (UniProt P11309); assay: Inhibition of recombinant full length human His-tagged PIM1 expressed in baculovirus expression system at 0.1 uM using serine/threonine-7 peptide as substrate incubated for 60 mins by Z'-LYTE assay relative to control
# [5] = target: Focal adhesion kinase 1 (Homo sapiens) (UniProt Q05397); assay: Inhibition of recombinant full length human GST-tagged FAK expressed in baculovirus expression system at 0.1 uM using tyrosine-7 peptide as substrate incubated for 60 mins by Z'-LYTE assay relative to control
# Chain of Focal adhesion kinase 1 (Homo sapiens) (Q05397 2-1052 limits assumed): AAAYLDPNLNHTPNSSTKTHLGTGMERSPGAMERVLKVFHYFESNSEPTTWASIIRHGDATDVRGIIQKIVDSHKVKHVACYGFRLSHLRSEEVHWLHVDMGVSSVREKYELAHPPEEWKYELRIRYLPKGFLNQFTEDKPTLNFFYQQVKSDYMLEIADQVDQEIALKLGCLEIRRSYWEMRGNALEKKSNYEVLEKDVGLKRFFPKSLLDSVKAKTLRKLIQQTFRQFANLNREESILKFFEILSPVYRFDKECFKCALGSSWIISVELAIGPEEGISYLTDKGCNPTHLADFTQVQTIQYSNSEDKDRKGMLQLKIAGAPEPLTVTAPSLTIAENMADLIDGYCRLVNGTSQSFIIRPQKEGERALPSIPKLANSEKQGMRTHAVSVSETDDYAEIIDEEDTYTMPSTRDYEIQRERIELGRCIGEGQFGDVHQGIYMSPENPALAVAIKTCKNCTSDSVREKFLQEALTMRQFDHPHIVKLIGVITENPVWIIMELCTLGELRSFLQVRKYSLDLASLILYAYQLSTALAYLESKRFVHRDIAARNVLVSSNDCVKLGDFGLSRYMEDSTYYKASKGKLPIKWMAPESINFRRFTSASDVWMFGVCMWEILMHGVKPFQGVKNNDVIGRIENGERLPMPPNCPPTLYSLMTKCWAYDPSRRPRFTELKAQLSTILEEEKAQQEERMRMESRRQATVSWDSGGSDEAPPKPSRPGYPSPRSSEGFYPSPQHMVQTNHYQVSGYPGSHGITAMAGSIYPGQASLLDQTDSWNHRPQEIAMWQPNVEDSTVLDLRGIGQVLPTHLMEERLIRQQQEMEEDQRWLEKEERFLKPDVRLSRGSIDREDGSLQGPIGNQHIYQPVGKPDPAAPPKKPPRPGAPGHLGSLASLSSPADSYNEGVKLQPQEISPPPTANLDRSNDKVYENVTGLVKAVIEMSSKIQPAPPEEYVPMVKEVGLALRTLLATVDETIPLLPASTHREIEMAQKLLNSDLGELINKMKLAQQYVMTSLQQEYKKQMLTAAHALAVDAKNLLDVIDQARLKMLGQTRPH
# [6] = target: Proto-oncogene tyrosine-protein kinase receptor Ret (Homo sapiens) (UniProt P07949); assay: Inhibition of recombinant human GST-tagged RET (658 to 1114 residues) expressed in baculovirus expression system at 0.1 uM using tyrosine-2 peptide as substrate incubated for 60 mins by Z'-LYTE assay relative to control
# Chain of Proto-oncogene tyrosine-protein kinase receptor Ret (Homo sapiens) (P07949 whole entry, the tested form may be a part): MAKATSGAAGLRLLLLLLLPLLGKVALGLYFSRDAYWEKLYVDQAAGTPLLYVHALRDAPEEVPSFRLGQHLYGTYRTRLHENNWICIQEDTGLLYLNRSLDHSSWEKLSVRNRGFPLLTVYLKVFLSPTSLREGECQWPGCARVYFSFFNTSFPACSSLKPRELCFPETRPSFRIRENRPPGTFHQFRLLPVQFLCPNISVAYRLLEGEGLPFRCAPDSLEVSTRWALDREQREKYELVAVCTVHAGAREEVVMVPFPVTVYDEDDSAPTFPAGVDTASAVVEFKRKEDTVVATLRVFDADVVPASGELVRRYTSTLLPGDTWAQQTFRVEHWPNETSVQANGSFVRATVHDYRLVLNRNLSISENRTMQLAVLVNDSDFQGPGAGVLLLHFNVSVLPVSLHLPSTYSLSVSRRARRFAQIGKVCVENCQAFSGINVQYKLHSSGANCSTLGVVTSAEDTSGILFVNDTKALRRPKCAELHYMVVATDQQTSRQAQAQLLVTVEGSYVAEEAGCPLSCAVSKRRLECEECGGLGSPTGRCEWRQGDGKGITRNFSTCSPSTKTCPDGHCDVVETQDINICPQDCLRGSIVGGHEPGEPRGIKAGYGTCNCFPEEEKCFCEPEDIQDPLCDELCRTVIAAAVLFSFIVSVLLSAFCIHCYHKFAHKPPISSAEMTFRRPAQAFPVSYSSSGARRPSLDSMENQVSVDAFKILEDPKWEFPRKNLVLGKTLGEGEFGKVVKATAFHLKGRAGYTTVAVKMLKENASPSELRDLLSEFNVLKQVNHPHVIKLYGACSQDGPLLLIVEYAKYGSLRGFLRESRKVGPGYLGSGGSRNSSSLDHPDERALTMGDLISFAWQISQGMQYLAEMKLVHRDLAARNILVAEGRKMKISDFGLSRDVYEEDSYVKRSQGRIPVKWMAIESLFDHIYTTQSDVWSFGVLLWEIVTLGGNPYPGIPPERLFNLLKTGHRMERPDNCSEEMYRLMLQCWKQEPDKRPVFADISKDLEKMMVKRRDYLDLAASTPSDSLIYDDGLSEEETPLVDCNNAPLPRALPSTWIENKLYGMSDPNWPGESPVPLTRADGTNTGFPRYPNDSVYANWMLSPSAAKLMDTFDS
# [7] = target: NUAK family SNF1-like kinase 1 (Homo sapiens) (UniProt O60285); assay: Inhibition of recombinant full length human His-tagged ARK5 expressed in baculovirus expression system at 0.1 uM using CHKtide peptide as substrate incubated for 60 mins by Adapta assay relative to control
# [8] = target: Tyrosine-protein kinase Srms (Homo sapiens) (UniProt Q9H3Y6); assay: Inhibition of recombinant full length human GST-tagged SRM expressed in baculovirus expression system at 0.1 uM using tyrosine-1 peptide as substrate incubated for 60 mins by Z'-LYTE assay relative to control
# [9] = target: Calcium/calmodulin-dependent protein kinase kinase 2 (Homo sapiens) (UniProt Q96RR4); assay: Inhibition of tracer 236 binding to recombinant full length human GST-tagged CAMKK2 expressed in baculovirus expression system at 0.1 uM measured after 60 mins by Lanthascreen assay relative to control
# Chain of Calcium/calmodulin-dependent protein kinase kinase 2 (Homo sapiens) (Q96RR4 2-588 limits assumed): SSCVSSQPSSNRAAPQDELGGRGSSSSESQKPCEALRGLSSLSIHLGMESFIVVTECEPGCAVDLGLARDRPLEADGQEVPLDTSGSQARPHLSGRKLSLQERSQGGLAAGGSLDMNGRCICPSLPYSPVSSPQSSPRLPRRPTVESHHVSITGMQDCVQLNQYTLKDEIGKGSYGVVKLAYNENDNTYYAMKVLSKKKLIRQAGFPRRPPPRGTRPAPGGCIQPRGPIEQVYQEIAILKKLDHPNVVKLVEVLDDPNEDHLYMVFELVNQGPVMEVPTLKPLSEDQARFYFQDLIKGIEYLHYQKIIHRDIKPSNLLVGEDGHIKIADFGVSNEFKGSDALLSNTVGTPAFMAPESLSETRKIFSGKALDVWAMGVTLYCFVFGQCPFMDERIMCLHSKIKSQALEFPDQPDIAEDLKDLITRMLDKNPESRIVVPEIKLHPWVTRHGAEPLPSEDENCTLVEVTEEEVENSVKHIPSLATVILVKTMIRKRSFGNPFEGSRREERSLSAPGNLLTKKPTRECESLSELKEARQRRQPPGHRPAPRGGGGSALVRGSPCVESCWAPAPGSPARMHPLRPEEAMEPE
# [10] = target: Angiopoietin-1 receptor (Homo sapiens) (UniProt Q02763); assay: Inhibition of recombinant human GST-tagged TIE2 (817 to 1101 residues) expressed in baculovirus expression system at 0.1 uM using tyrosine-5 peptide as substrate incubated for 60 mins by Z'-LYTE assay relative to control
# Chain of Angiopoietin-1 receptor (Homo sapiens) (Q02763 whole entry, the tested form may be a part): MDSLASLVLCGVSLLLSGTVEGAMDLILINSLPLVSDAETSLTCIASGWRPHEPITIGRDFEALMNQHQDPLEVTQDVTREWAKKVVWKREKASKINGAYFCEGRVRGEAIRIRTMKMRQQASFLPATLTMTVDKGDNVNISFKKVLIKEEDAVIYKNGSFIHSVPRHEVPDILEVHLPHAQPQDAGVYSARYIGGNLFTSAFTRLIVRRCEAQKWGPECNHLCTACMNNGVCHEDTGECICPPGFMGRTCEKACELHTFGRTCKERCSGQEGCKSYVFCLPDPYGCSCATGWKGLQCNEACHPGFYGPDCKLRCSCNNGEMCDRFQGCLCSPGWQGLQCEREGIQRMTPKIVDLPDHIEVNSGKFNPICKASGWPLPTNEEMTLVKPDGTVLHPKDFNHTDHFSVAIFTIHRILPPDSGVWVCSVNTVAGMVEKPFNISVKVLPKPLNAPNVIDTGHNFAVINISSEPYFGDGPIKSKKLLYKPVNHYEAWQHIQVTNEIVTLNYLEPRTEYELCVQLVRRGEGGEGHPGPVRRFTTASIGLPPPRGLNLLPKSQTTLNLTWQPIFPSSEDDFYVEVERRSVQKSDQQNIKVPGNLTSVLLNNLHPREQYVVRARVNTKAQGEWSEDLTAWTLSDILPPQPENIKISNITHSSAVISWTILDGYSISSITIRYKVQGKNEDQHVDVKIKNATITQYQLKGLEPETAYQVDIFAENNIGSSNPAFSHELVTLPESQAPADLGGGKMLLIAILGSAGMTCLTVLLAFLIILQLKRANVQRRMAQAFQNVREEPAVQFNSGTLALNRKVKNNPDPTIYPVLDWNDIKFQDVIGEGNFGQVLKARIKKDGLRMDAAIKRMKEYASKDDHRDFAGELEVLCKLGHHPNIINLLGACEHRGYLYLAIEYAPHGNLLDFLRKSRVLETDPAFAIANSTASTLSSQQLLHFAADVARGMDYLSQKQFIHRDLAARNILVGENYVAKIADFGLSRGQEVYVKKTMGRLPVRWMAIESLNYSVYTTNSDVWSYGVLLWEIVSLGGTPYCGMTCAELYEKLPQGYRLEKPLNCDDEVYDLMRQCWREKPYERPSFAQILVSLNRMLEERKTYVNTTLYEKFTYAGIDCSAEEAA
# [11] = target: Ribosomal protein S6 kinase alpha-3 (Homo sapiens) (UniProt P51812); assay: Inhibition of recombinant full length human His-tagged RSK2 expressed in baculovirus expression system at 0.1 uM using serine/threonine-6 peptide as substrate incubated for 60 mins by Z'-LYTE assay relative to control
# [12] = target: Calcium/calmodulin-dependent protein kinase type 1D (Homo sapiens) (UniProt Q8IU85); assay: Inhibition of recombinant full length human His-tagged CAMK1delta expressed in baculovirus expression system at 0.1 uM using serine/threonine-25 peptide as substrate incubated for 60 mins by Z'-LYTE assay relative to control
# Chain of Calcium/calmodulin-dependent protein kinase type 1D (Homo sapiens) (Q8IU85 whole entry, looked up, the tested form may be a part): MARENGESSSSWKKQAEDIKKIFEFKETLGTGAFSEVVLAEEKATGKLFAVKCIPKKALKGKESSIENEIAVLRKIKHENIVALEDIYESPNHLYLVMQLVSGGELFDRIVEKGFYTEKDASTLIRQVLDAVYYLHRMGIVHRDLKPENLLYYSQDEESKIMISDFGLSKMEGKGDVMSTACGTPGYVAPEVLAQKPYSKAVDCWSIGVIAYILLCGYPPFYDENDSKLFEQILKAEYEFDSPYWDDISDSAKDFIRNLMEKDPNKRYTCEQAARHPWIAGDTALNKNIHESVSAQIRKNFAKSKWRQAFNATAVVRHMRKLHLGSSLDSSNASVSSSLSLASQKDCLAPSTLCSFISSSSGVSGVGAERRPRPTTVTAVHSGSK
# [13] = target: Receptor-interacting serine/threonine-protein kinase 2 (Homo sapiens) (UniProt O43353); assay: Inhibition of tracer 178 binding to recombinant human His-tagged RIPK2 catalytic domain (1 to 299 residues) expressed in baculovirus expression system at 0.1 uM measured after 60 mins by Lanthascreen assay relative to control
# [14] = target: Ephrin type-A receptor 3 (Homo sapiens) (UniProt P29320); assay: Inhibition of tracer 236 binding to recombinant human His-tagged EPHA3 (569 to 976 residues) expressed in baculovirus expression system at 0.1 uM measured after 60 mins by Lanthascreen assay relative to control
# [15] = target: Ephrin type-A receptor 8 (Homo sapiens) (UniProt P29322); assay: Inhibition of recombinant human GST-tagged EPHA8 catalytic domain (565 to 1005 residues) expressed in baculovirus expression system at 0.1 uM using tyrosine-2 peptide as substrate incubated for 60 mins by Z'-LYTE assay relative to control
# [16] = target: Ephrin type-B receptor 1 (Homo sapiens) (UniProt P54762); assay: Inhibition of recombinant human GST-tagged EPHB1 catalytic domain (613 to 881 residues) expressed in baculovirus expression system at 0.1 uM using tyrosine-2 peptide as substrate incubated for 60 mins by Z'-LYTE assay relative to control
# [17] = target: Dual specificity mitogen-activated protein kinase kinase 1 (Homo sapiens) (UniProt Q02750); assay: Inhibition of recombinant full length human His-tagged MEK1 expressed in baculovirus expression system at 0.1 uM using serine/threonine-3 peptide as substrate incubated for 60 mins by Z'-LYTE assay relative to control
# Chain of Dual specificity mitogen-activated protein kinase kinase 1 (Homo sapiens) (Q02750 whole entry): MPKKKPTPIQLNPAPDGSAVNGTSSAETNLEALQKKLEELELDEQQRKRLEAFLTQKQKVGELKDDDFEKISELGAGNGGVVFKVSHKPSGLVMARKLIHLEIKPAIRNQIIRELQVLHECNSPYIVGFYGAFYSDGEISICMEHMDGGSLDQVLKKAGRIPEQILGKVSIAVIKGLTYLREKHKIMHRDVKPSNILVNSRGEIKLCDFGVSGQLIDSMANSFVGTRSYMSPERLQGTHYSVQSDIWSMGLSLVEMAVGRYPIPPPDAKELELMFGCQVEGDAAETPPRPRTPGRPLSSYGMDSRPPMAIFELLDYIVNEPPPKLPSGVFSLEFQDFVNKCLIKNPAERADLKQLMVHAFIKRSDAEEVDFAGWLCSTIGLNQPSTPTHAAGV
# [18] = target: 5'-AMP-activated protein kinase catalytic subunit alpha-1 (Homo sapiens) (UniProt Q13131); assay: Inhibition of recombinant full length human PRKAA1 expressed in baculovirus expression system at 0.1 uM using CREBtide as substrate 60 mins by Lanthascreen assay relative to control
# [19] = target: Serine/threonine-protein kinase PAK 4 (Homo sapiens) (UniProt O96013); assay: Inhibition of recombinant human GST-tagged PAK4 catalytic domain (295 to 591 residues) expressed in baculovirus expression system at 0.1 uM using serine/threonine-20 peptide as substrate incubated for 60 mins by Z'-LYTE assay relative to control
# [20] = target: Mitogen-activated protein kinase 14 (Homo sapiens) (UniProt Q16539); assay: Inhibition of recombinant full length human GST-tagged p38alpha expressed in Escherichia coli expression system at 0.1 uM using serine/threonine-15 peptide as substrate incubated for 60 mins by Z'-LYTE assay relative to control
# Chain of Mitogen-activated protein kinase 14 (Homo sapiens) (Q16539 whole entry): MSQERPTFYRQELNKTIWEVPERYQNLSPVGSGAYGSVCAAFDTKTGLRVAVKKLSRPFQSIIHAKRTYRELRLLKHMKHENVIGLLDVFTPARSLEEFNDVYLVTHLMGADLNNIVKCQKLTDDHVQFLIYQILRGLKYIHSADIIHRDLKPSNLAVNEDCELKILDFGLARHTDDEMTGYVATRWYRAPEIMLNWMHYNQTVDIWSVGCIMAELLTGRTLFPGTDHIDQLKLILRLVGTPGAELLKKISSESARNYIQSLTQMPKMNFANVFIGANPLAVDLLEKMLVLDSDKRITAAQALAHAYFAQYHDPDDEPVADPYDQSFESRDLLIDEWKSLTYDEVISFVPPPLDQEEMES
# [21] = target: Serine/threonine-protein kinase PAK 1 (Homo sapiens) (UniProt Q13153); assay: Inhibition of recombinant full length human GST-tagged PAK1 expressed in baculovirus expression system at 0.1 uM using serine/threonine-19 peptide as substrate incubated for 60 mins by Z'-LYTE assay relative to control
# [22] = target: Phosphatidylinositol 4,5-bisphosphate 3-kinase catalytic subunit gamma isoform (Homo sapiens) (UniProt P48736); assay: Inhibition of recombinant human GST-tagged PI3Kgamma catalytic domain (468 to 1203 residues) expressed in insect expression system at 0.1 uM using PI Lipid Kinase as substrate incubated for 60 mins by Adapta assay relative to control
# [23] = target: Serine/threonine-protein kinase 33 (Homo sapiens) (UniProt Q9BYT3); assay: Inhibition of tracer 236 binding to recombinant full length human His-tagged STK33 expressed in baculovirus expression system at 0.1 uM measured after 60 mins by Lanthascreen assay relative to control
Compound,inhibition [1] [%],inhibition [2] [%],inhibition [3] [%],inhibition [4] [%],inhibition [5] [%],inhibition [6] [%],inhibition [7] [%],inhibition [8] [%],inhibition [9] [%],inhibition [10] [%],inhibition [11] [%],inhibition [12] [%],inhibition [13] [%],inhibition [14] [%],inhibition [15] [%],inhibition [16] [%],inhibition [17] [%],inhibition [18] [%],inhibition [19] [%],inhibition [20] [%],also measured
CCN1CC2(C1)CN(c1ccc(Nc3ncc(F)c(-c4cnn5c4[C@H](C)CCCC5)n3)nc1)C2,61.5,3.5,61.5,11.5,19.5,13.5,92,0,44,-0.5,53,13.5,2,6.5,3.5,8,20.5,10,13.5,3,inhibition [21]: 15.5%; inhibition [22]: 2%; inhibition [23]: 50%
CCN1CCN(Cc2ccc(Nc3ncc(F)c(-c4cc(F)c5nc(C)n(C(C)C)c5c4)n3)nc2)CC1 [ABEMACICLIB],30,9,25.5,95,15.5,5.5,22.7,6,69.4,-2,10.5,14,1.1,2.1,1,0.5,4.7,13.5,1,-1,inhibition [21]: 3.5%; inhibition [22]: -6.3%; inhibition [23]: 50.8%
